Source: patent US10815274B2, “Immunogenic WT-1 peptides and methods of use thereof” (Memorial Sloan Kettering Cancer Center, priority 2012, dated 2020)
Where a SMILES comes first, the peptide text is derived from it.

Key:
[1] = test system: WT1 peptide loaded autologous APC; test: Cr51 release assay, cytotoxic CTL response vs peptide loaded autologous APC; format: cell-based, human; conditions: 50:1 E:T
WT1- leukemia = test: Cr51 release assay, cytotoxic CTL response vs WT1- leukemia; format: cell-based, human; conditions: 50:1 E:T
Source text: (§1) Twenty-four primary leukemic cells and 1 leukemic cell line were characterized for their expression of WT1 by intracellular FACS staining using murine anti-human WT1 monoclonal antibodies (Neomarkers, Fremont, Calif.) as previously described (32,38) The WT1+ leukemias included blast cells from 11 primary AMLs, 3 primary ALLs and 1B-cell precursor ALL cell line. Ten WT1-leukemias, were used as controls, and included 3 B-cell precursor ALLs and 7 AMLs.

WT1- autologous APC = test: Cr51 release assay, cytotoxic CTL response vs unmodified autologous APC; format: cell-based, human; conditions: 50:1 E:T
[2] = test system: WT1+ allo APC with restricting HLA allele loaded with WT1 peptide; test: Cr51 release assay, cytotoxic CTL response vs peptide loaded allogeneic APC sharing restricting HLA allele (HLA restriction); conditions: for Cytotoxic CTL response, % vs WT1+ allo APC with restricting HLA allele loaded with WT1 peptide: 50:1 E:T
[3] = test system: WT1- allo APC with restricting HLA allele; test: Cr51 release assay, cytotoxic CTL response vs unloaded allogeneic APC sharing restricting HLA allele; format: cell-based, human; conditions: 50:1 E:T
WT1+ leukemia = test: Cr51 release assay, cytotoxic CTL response vs WT1+ leukemia expressing restricting HLA allele; format: cell-based, human; conditions: 50:1 E:T
Source text: as §1
PHA blasts were not available from every patient that provided leukemia blasts for this study.

Structure (SMILES): CSCC[C@H](NC(=O)[C@H](CCC(N)=O)NC(=O)[C@@H](N)CC(N)=O)C(=O)N[C@@H](CC(N)=O)C(=O)N[C@@H](CC(C)C)C(=O)NCC(=O)N[C@@H](C)C(=O)N[C@H](C(=O)N[C@@H](CC(C)C)C(=O)O)[C@@H](C)O [SEQ ID NO: 172] (H-NQMNLGATL-OH; N-terminus and C-terminus assumed)
- Cytotoxic CTL response, % vs WT1 peptide loaded autologous APC ([1]; HLA allele A2402): 9%
- Cytotoxic CTL response, % vs WT1- leukemia (WT1- leukemia; HLA allele A2402): 1%
- Cytotoxic CTL response, % vs WT1- autologous APC (WT1- autologous APC; HLA allele A2402): 4%
- Cytotoxic CTL response, % vs WT1+ allo APC with restricting HLA allele loaded with WT1 peptide ([2]; HLA allele A2402): 2%
- Cytotoxic CTL response, % vs WT1- allo APC with restricting HLA allele ([3]; HLA allele A2402): 0%
- Cytotoxic CTL response, % vs WT1+ leukemia (WT1+ leukemia; HLA allele A2402): 17%

Structure (SMILES): C[C@H](NC(=O)[C@H](CCC(N)=O)NC(=O)[C@H](CO)NC(=O)CNC(=O)[C@@H](NC(=O)[C@H](CS)NC(=O)[C@H](CO)NC(=O)[C@H](CC(=O)O)NC(=O)[C@@H](N)[C@@H](C)O)[C@@H](C)O)C(=O)O [SEQ ID NO: 168] (H-TDSCTGSQA-OH; N-terminus and C-terminus assumed)
- Cytotoxic CTL response, % vs WT1 peptide loaded autologous APC ([1]; HLA allele B3802): 88%
- Cytotoxic CTL response, % vs WT1 peptide loaded autologous APC ([1]; HLA allele B4402): 36%
- Cytotoxic CTL response, % vs WT1- leukemia (WT1- leukemia; HLA allele B4402): 1%
- Cytotoxic CTL response, % vs WT1- autologous APC (WT1- autologous APC; HLA allele B3802): 0%
- Cytotoxic CTL response, % vs WT1- autologous APC (WT1- autologous APC; HLA allele B4402): 1%
- Cytotoxic CTL response, % vs WT1+ allo APC with restricting HLA allele loaded with WT1 peptide ([2]; HLA allele B3802): 53%
- Cytotoxic CTL response, % vs WT1+ allo APC with restricting HLA allele loaded with WT1 peptide ([2]; HLA allele B4402): 88%
- Cytotoxic CTL response, % vs WT1- allo APC with restricting HLA allele ([3]; HLA allele B3802): 1%
- Cytotoxic CTL response, % vs WT1- allo APC with restricting HLA allele ([3]; HLA allele B4402): 0%
- Cytotoxic CTL response, % vs WT1+ leukemia (WT1+ leukemia; HLA allele B4402): 56%

Structure (SMILES): C[C@H](NC(=O)[C@@H]1CCCN1)C(=O)N1CCC[C@H]1C(=O)N1CCC[C@H]1C(=O)N1CCC[C@H]1C(=O)N1CCC[C@H]1C(=O)N1CCC[C@H]1C(=O)N1CCC[C@H]1C(=O)N1CCC[C@H]1C(=O)O [SEQ ID NO: 158] (H-PAPPPPPPP-OH; N-terminus and C-terminus assumed)
- Cytotoxic CTL response, % vs WT1 peptide loaded autologous APC ([1]; HLA allele A0201): 40%
- Cytotoxic CTL response, % vs WT1- leukemia (WT1- leukemia; HLA allele A0201): 0%
- Cytotoxic CTL response, % vs WT1- autologous APC (WT1- autologous APC; HLA allele A0201): 2%
- Cytotoxic CTL response, % vs WT1+ allo APC with restricting HLA allele loaded with WT1 peptide ([2]; HLA allele A0201): 18%
- Cytotoxic CTL response, % vs WT1- allo APC with restricting HLA allele ([3]; HLA allele A0201): 1%
- Cytotoxic CTL response, % vs WT1+ leukemia (WT1+ leukemia; HLA allele A0201): 0%

Structure (SMILES): CSCC[C@H](NC(=O)[C@H](CCC(N)=O)NC(=O)[C@H](CC(N)=O)NC(=O)[C@@H](N)Cc1c[nH]c2ccccc12)C(=O)N[C@@H](CC(N)=O)C(=O)N[C@@H](CC(C)C)C(=O)NCC(=O)N[C@@H](C)C(=O)N[C@H](C(=O)N[C@@H](CC(C)C)C(=O)N[C@@H](CCCCN)C(=O)O)[C@@H](C)O [SEQ ID NO: 173] (H-WNQMNLGATLK-OH; N-terminus and C-terminus assumed)
- Cytotoxic CTL response, % vs WT1 peptide loaded autologous APC ([1]; HLA allele DRB11104): 8%
- Cytotoxic CTL response, % vs WT1- leukemia (WT1- leukemia; HLA allele DRB11104): 0%
- Cytotoxic CTL response, % vs WT1- autologous APC (WT1- autologous APC; HLA allele DRB11104): 0%
- Cytotoxic CTL response, % vs WT1+ allo APC with restricting HLA allele loaded with WT1 peptide ([2]; HLA allele DRB11104): 1%
- Cytotoxic CTL response, % vs WT1- allo APC with restricting HLA allele ([3]; HLA allele DRB11104): 2%
- Cytotoxic CTL response, % vs WT1+ leukemia (WT1+ leukemia; HLA allele DRB11104): 0%

Structure (SMILES): CSCC[C@H](NC(=O)[C@@H]1CCCN1C(=O)[C@H](CC(=O)O)NC(=O)[C@H](CCC(=O)O)NC(=O)[C@H](Cc1c[nH]cn1)NC(=O)[C@H](CCCCN)NC(=O)[C@H](Cc1ccccc1)NC(=O)[C@H](CO)NC(=O)[C@@H](N)Cc1c[nH]cn1)C(=O)O [SEQ ID NO: 165] (H-HSFKHEDPM-OH; N-terminus and C-terminus assumed)
- Cytotoxic CTL response, % vs WT1 peptide loaded autologous APC ([1]; HLA allele B3501): 50%
- Cytotoxic CTL response, % vs WT1- leukemia (WT1- leukemia; HLA allele B3501): 5%
- Cytotoxic CTL response, % vs WT1- autologous APC (WT1- autologous APC; HLA allele B3501): 0%
- Cytotoxic CTL response, % vs WT1+ allo APC with restricting HLA allele loaded with WT1 peptide ([2]; HLA allele B3501): 63%
- Cytotoxic activity against panel of allogeneic CAMs loaded with peptide, each sharing one HLA allele ([2]; peptide loaded autologous targets and targets expressing HLA-B3501, not targets sharing other alleles): selectively lysed
- Cytotoxic CTL response, % vs WT1- allo APC with restricting HLA allele ([3]; HLA allele B3501): 3%
- Cytotoxic CTL response, % vs WT1+ leukemia (WT1+ leukemia; HLA allele B3501): 45%

Structure (SMILES): CC(C)C[C@H](N)C(=O)N[C@@H](CC(=O)O)C(=O)N[C@@H](Cc1ccccc1)C(=O)N[C@@H](C)C(=O)N1CCC[C@H]1C(=O)N1CCC[C@H]1C(=O)NCC(=O)N[C@@H](C)C(=O)N[C@@H](CO)C(=O)O [SEQ ID NO: 155] (H-LDFAPPGAS-OH; N-terminus and C-terminus assumed)
- Cytotoxic CTL response, % vs WT1 peptide loaded autologous APC ([1]; HLA allele A0201): 73%
- Cytotoxic CTL response, % vs WT1- leukemia (WT1- leukemia; HLA allele A0201): 0%
- Cytotoxic CTL response, % vs WT1- autologous APC (WT1- autologous APC; HLA allele A0201): 0%
- Cytotoxicity of T-cells restricted by HLA A0201 against loaded targets ([2]; HLA A0201): able to lyse
- Cytotoxic CTL response, % vs WT1+ allo APC with restricting HLA allele loaded with WT1 peptide ([2]; HLA allele A0201): 62%
- Cytotoxic CTL response, % vs WT1- allo APC with restricting HLA allele ([3]; HLA allele A0201): 1%
- Cytotoxic CTL response, % vs WT1+ leukemia (WT1+ leukemia; HLA allele A0201): 40%
